ChEMBL document CHEMBL1151494, “Synthesis of new building blocks for peptide nucleic acids containing monomers with variations in the backbone” (Bioorg Med Chem Lett, 1997)
The source made the active and inactive calls. The calls are words filed in the database; no cut-off is given here.

What was measured:
[1] = system: Proteinase K (Tritirachium album); assay: The stability against proteinase K; Active
[2] = The stability against nucleases; Active

Stability [1]	Stability [2]	SMILES
Active	Active	Cc1cn(CC(=O)N2C[C@@H](N)C[C@H]2C(=O)NC2C[C@@H](C(=O)N[C@H]3C[C@@H](C(=O)NC4C[C@@H](C(=O)N[C@H]5C[C@@H](C(=O)NC6C[C@@H](C(=O)N[C@H]7C[C@@H](C(=O)NC8C[C@@H](C(=O)N[C@@H](C)C(=O)O)N(C(=O)Cn9cc(C)c(=O)[nH]c9=O)C8)N(C(=O)Cn8cc(C)c(=O)[nH]c8=O)C7)N(C(=O)Cn7cc(C)c(=O)[nH]c7=O)C6)N(C(=O)Cn6cc(C)c(=O)[nH]c6=O)C5)N(C(=O)Cn5cc(C)c(=O)[nH]c5=O)C4)N(C(=O)Cn4cc(C)c(=O)[nH]c4=O)C3)N(C(=O)Cn3cc(C)c(=O)[nH]c3=O)C2)c(=O)[nH]c1=O (stereo partly drawn)
Active	Active	Cc1cn([C@H]2C[C@@H](C(=O)NCC(=O)O)N(C(=O)CNC(=O)[C@@H]3C[C@H](n4cc(C)c(=O)[nH]c4=O)CN3C(=O)CNC(=O)[C@@H]3C[C@H](n4cc(C)c(=O)[nH]c4=O)CN3C(=O)CNC(=O)[C@@H]3C[C@H](n4cc(C)c(=O)[nH]c4=O)CN3C(=O)CNC(=O)[C@@H]3C[C@H](n4cc(C)c(=O)[nH]c4=O)CN3C(=O)CNC(=O)[C@@H]3C[C@H](n4cc(C)c(=O)[nH]c4=O)CN3C(=O)CNC(=O)[C@@H]3C[C@H](n4cc(C)c(=O)[nH]c4=O)CN3C(=O)CNC(=O)[C@@H]3C[C@H](n4cc(C)c(=O)[nH]c4=O)CN3C(=O)[C@@H](N)CCCCN)C2)c(=O)[nH]c1=O
Active	Active	Cc1cn([C@@H]2C[C@@H](C(=O)NCC(=O)O)N(C(=O)CNC(=O)[C@@H]3C[C@@H](n4cc(C)c(=O)[nH]c4=O)CN3C(=O)CNC(=O)[C@@H]3C[C@@H](n4cc(C)c(=O)[nH]c4=O)CN3C(=O)CNC(=O)[C@@H]3C[C@@H](n4cc(C)c(=O)[nH]c4=O)CN3C(=O)CNC(=O)[C@@H]3C[C@@H](n4cc(C)c(=O)[nH]c4=O)CN3C(=O)CNC(=O)[C@@H]3C[C@@H](n4cc(C)c(=O)[nH]c4=O)CN3C(=O)CNC(=O)[C@@H]3C[C@@H](n4cc(C)c(=O)[nH]c4=O)CN3C(=O)CNC(=O)[C@@H]3C[C@@H](n4cc(C)c(=O)[nH]c4=O)CN3C(=O)[C@@H](N)CCCCN)C2)c(=O)[nH]c1=O
Active	Active	Cc1cn(CC(=O)N2C[C@H](N)C[C@H]2C(=O)NC2C[C@@H](C(=O)N[C@@H]3C[C@@H](C(=O)NC4C[C@@H](C(=O)N[C@@H]5C[C@@H](C(=O)NC6C[C@@H](C(=O)N[C@@H]7C[C@@H](C(=O)NC8C[C@@H](C(=O)N[C@@H](C)C(=O)O)N(C(=O)Cn9cc(C)c(=O)[nH]c9=O)C8)N(C(=O)Cn8cc(C)c(=O)[nH]c8=O)C7)N(C(=O)Cn7cc(C)c(=O)[nH]c7=O)C6)N(C(=O)Cn6cc(C)c(=O)[nH]c6=O)C5)N(C(=O)Cn5cc(C)c(=O)[nH]c5=O)C4)N(C(=O)Cn4cc(C)c(=O)[nH]c4=O)C3)N(C(=O)Cn3cc(C)c(=O)[nH]c3=O)C2)c(=O)[nH]c1=O (stereo partly drawn)
